These are literature values, as cited in patent US20080166420A1, “Krill Oil Compositions” (priority 2007, published 2008).

The structures appear in SMILES notation.

For the compound `O=C(O)c1cccnc1` [Niacin, niacin], for the setting “clinically shown”, the “C-reactive protein (CRP)” value is recorded as “reduce”, the high density lipoproteins entry was “significant increase”, the “lipoprotein (a)” value is on record as “significant reduction” and the low density lipoproteins result is on record as “reduction”. Under “clinically shown”, the total cholesterol result is “reduction” and the triglycerides entry is “significant reduction”. In addition, the fibrinogen entry (in vivo) is given as “reduce”.
